Test results from PubChem BioAssay (NCI).
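Briefly, cells in 96-well plates were exposed to five compound concentrations for 48 h, and endpoints were estimated by linear interpolation. Abbreviation: GI50, concentration required for 50% inhibition of growth. The concentration for full growth arrest is given as TGI.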

Legend:
Test in all cases: NCI-60 cell line screen, 48 h
786-0 renal = tested on: 786-0 renal
A498 renal = tested on: A498 renal
A549 NSCLC = tested on: A549 NSCLC
ACHN renal = tested on: ACHN renal
BT-549 breast = tested on: BT-549 breast
CAKI-1 renal = tested on: CAKI-1 renal
CCRF-CEM leukemia = tested on: CCRF-CEM leukemia
COLO 205 colon = tested on: COLO 205 colon
DU-145 prostate = tested on: DU-145 prostate
EKVX NSCLC = tested on: EKVX NSCLC
HCC-2998 colon = tested on: HCC-2998 colon
HCT-116 colon = tested on: HCT-116 colon
HCT-15 colon = tested on: HCT-15 colon
HL-60(TB) leukemia = tested on: HL-60(TB) leukemia
HOP-62 NSCLC = tested on: HOP-62 NSCLC
HOP-92 NSCLC = tested on: HOP-92 NSCLC
HS 578T breast = tested on: HS 578T breast
HT29 colon = tested on: HT29 colon
IGROV1 ovarian = tested on: IGROV1 ovarian
K-562 leukemia = tested on: K-562 leukemia
KM12 colon = tested on: KM12 colon
LOX IMVI melanoma = tested on: LOX IMVI melanoma
M14 melanoma = tested on: M14 melanoma
MALME-3M melanoma = tested on: MALME-3M melanoma
MCF7 breast = tested on: MCF7 breast
MDA-MB-231 breast = tested on: MDA-MB-231 breast
MDA-MB-435 = tested on: MDA-MB-435
MOLT-4 leukemia = tested on: MOLT-4 leukemia
NCI-H226 lung = tested on: NCI-H226 lung

CC(=O)O[C@H]1Cc2c([nH]c3ccccc23)[C@@H](c2ccc(Cl)cc2)N1C(=O)CCNC(C)(C)C
GI50 (786-0 renal): 3.64 µM | TGI (786-0 renal): 7.92 µM | GI50 (A498 renal): 1.9 µM | TGI (A498 renal): 5.83 µM | GI50 (A549 NSCLC): 5.19 µM | TGI (A549 NSCLC): 10.1 µM | GI50 (ACHN renal): 4.13 µM | TGI (ACHN renal): 8.29 µM | GI50 (BT-549 breast): 4 µM | TGI (BT-549 breast): 8.27 µM | GI50 (CAKI-1 renal): 2.77 µM | TGI (CAKI-1 renal): 7.01 µM | GI50 (CCRF-CEM leukemia): 5.12 µM | TGI (CCRF-CEM leukemia): 14.8 µM | GI50 (COLO 205 colon): 3.47 µM | TGI (COLO 205 colon): 7.7 µM | GI50 (DU-145 prostate): 4.01 µM | TGI (DU-145 prostate): 8.45 µM | GI50 (EKVX NSCLC): 3.74 µM | TGI (EKVX NSCLC): 7.9 µM | GI50 (HCC-2998 colon): 3.65 µM | TGI (HCC-2998 colon): 7.85 µM | GI50 (HCT-116 colon): 1.64 µM | TGI (HCT-116 colon): 6.32 µM | GI50 (HCT-15 colon): 4.05 µM | TGI (HCT-15 colon): 8.32 µM | GI50 (HL-60(TB) leukemia): 2.51 µM | TGI (HL-60(TB) leukemia): 11.7 µM | GI50 (HOP-62 NSCLC): 2.67 µM | TGI (HOP-62 NSCLC): 7.07 µM | GI50 (HOP-92 NSCLC): 1.1 µM | TGI (HOP-92 NSCLC): 5.61 µM | GI50 (HS 578T breast): 3.76 µM | TGI (HS 578T breast): 13 µM | GI50 (HT29 colon): 1.59 µM | TGI (HT29 colon): 5.57 µM | GI50 (IGROV1 ovarian): 2.19 µM | TGI (IGROV1 ovarian): 7.77 µM | GI50 (K-562 leukemia): 3.08 µM | TGI (K-562 leukemia): 10.1 µM | GI50 (KM12 colon): 4.33 µM | TGI (KM12 colon): 9.51 µM | GI50 (LOX IMVI melanoma): 2.43 µM | TGI (LOX IMVI melanoma): 6.72 µM | GI50 (M14 melanoma): 2.05 µM | TGI (M14 melanoma): 6.96 µM | GI50 (MALME-3M melanoma): 4.26 µM | TGI (MALME-3M melanoma): 8.96 µM | GI50 (MCF7 breast): 3.25 µM | TGI (MCF7 breast): 7.74 µM | GI50 (MDA-MB-231 breast): 1.79 µM | TGI (MDA-MB-231 breast): 6.07 µM | GI50 (MDA-MB-435): 4.68 µM | TGI (MDA-MB-435): 9.06 µM | GI50 (MOLT-4 leukemia): 2.16 µM | TGI (MOLT-4 leukemia): 8.99 µM | GI50 (NCI-H226 lung): 2.11 µM | TGI (NCI-H226 lung): 7.15 µM
